The target in one data set is T1, OrnEc (Escherichia coli, UniProt P0A784).
T1 sequence (P0A784 1-181): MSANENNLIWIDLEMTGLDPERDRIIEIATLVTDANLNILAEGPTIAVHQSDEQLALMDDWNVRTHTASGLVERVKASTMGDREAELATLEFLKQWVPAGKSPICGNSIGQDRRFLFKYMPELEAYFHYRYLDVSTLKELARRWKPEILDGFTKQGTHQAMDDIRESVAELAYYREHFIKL
Briefly: cleavage of […]'-32P RNA mixture, denaturing PAGE. The format is biochemical. The following applies: 20 nM enzyme; GG is the 2-mer of the 2-7 and 10-mer mix; pH 8.0, 100 mM NaCl, Mg or Mn; labelled compound.

The next data set deals with T2, NrnABs (Bacillus subtilis, UniProt O34600, D156N/D80N).
T2 construct: gene nrnA
Briefly: DRaCALA.

Another data set has as its target CnpBMt (Mycobacterium tuberculosis, UniProt P71615). The data set is described as follows: cleavage of […]-c-di-AMP, denaturing PAGE. The format is biochemical. The following applies: 100 nM enzyme, 1 uM substrate; pH 8.0, 300 mM NaCl, 200 uM MnCl2, room temperature; labelled compound.
A further data set has as its target T3, GdpP(82–659)Bs (Bacillus subtilis, UniProt P37484).
T3 construct: cytoplasmic portion, residues 82-659; N-terminal 6xHis tag kept; expressed in E. coli
T3 sequence (P37484 82-659): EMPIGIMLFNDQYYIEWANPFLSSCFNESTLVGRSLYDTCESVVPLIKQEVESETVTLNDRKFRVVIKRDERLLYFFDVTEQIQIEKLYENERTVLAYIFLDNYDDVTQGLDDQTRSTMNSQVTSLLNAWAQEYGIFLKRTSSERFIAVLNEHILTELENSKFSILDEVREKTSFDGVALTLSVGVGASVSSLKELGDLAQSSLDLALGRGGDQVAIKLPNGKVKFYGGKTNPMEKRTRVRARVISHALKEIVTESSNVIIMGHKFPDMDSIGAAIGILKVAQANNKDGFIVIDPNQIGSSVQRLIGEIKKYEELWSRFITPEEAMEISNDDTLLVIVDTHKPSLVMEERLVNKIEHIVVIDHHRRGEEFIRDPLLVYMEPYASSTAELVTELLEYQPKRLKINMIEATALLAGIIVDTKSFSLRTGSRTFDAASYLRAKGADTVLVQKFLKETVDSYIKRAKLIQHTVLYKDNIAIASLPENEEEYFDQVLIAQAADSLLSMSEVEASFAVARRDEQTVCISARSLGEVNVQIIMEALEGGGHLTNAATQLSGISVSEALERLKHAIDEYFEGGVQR
Briefly: cleavage of […]-c-di-AMP, denaturing PAGE. Format: biochemical. The following applies: 100 nM enzyme, 1 uM substrate; pH 8.0, 300 mM NaCl, 200 uM MnCl2, room temperature; labelled compound; positive control.

The next data set concerns the target T4, CnpBMs (Mycolicibacterium smegmatis, UniProt A0QVM9).
T4 construct: gene MSMEG_2630
Briefly: cleavage of […]-c-di-AMP, denaturing PAGE. The following applies: 100 nM enzyme, 1 uM substrate; pH 8.0, 300 mM NaCl, 200 uM MnCl2, room temperature; labelled compound. Format: biochemical.

Substrate in data set [1]: Nc1ncnc2c1ncn2[C@@H]1O[C@H](COP(=O)(O)O[C@H]2[C@@H](O)[C@H](n3cnc4c(N)ncnc43)O[C@@H]2COP(=O)(O)O)[C@@H](O)[C@H]1O
Briefly: continuous PPDK/luciferase coupled assay of AMP release. The format is biochemical, Bacillus subtilis. The following applies: 10 mM MgCl2, 0.5 mM MnCl2, pH 8.0, 25 C, value assigned to AA by printed order (AA or ACC), 5'-phosphate inferred from 2 AMP per AA.

Substrate in data set [2]: Nc1ccn([C@@H]2O[C@H](COP(=O)(O)O[C@H]3[C@@H](O)[C@H](n4ccc(N)nc4=O)O[C@@H]3COP(=O)(O)O[C@H]3[C@@H](O)[C@H](n4cnc5c(N)ncnc54)O[C@@H]3COP(=O)(O)O)[C@@H](O)[C@H]2O)c(=O)n1
The data set is described as above. Format: biochemical, Bacillus subtilis. The following applies: 10 mM MgCl2, 0.5 mM MnCl2, pH 8.0, 25 C, value assigned to ACC by printed order (AA or ACC), 5'-phosphate inferred from AMP release.

T2 sequence (O34600 whole entry D80N/D156N): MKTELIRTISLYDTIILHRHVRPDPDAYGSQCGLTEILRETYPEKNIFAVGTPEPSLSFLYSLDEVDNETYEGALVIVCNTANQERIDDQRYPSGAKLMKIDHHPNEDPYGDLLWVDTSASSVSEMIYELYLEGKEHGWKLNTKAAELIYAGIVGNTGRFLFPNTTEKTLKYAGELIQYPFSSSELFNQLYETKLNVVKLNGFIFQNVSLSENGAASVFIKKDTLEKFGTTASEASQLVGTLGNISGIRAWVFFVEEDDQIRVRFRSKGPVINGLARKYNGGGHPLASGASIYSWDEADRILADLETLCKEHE
T4 sequence (A0QVM9 1-340): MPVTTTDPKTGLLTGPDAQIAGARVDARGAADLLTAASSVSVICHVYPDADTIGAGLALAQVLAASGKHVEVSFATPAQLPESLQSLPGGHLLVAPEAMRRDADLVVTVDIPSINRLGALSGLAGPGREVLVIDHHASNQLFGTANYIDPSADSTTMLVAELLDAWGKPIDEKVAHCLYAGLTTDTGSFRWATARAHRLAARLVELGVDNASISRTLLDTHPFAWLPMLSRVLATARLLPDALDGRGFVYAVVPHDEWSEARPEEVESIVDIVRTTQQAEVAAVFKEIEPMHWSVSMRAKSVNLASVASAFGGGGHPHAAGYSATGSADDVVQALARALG
Sequence of CnpBMt (P71615 whole entry): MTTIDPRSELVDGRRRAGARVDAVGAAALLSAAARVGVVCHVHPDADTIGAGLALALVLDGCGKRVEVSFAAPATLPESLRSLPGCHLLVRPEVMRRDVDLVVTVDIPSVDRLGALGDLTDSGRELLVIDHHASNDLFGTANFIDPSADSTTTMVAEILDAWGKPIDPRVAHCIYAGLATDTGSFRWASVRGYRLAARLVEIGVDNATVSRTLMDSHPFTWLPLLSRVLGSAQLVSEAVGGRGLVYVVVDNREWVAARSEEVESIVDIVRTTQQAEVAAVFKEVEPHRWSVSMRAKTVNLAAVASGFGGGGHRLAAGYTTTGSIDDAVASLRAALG

Broadly, the Kd is the concentration at which binding is half-saturated. Lower therefore signals higher affinity. On to `Nc1nc2c(ncn2[C@@H]2O[C@H](COP(=O)(O)O[C@H]3[C@@H](O)[C@H](n4cnc5c(=O)[nH]c(N)nc54)O[C@@H]3COP(=O)(O)O)[C@@H](O)[C@H]2O)c(=O)[nH]1` [GG], for which the “cleavage of 5'-32P RNA mixture, denaturing PAGE” value at OrnEc is “dinucleotides are rapidly processed, and only minimal trinucleotide processing was seen”. At NrnABs, this molecule showed a dissociation constant (Kd) of 210 nM.
For the molecule `Nc1nc2c(ncn2[C@@H]2O[C@H](COP(=O)(O)O)[C@@H](OP(=O)(O)OC[C@H]3O[C@@H](n4cnc5c(N)ncnc54)[C@H](O)[C@@H]3O)[C@H]2O)c(=O)[nH]1` [GA], the affinity at NrnABs, expressed as Kd, was 360 ± 130 nM.
In the case of `Nc1ncnc2c1ncn2[C@@H]1O[C@@H]2COP(=O)(O)O[C@H]3[C@@H](O)[C@H](n4cnc5c(N)ncnc54)O[C@@H]3COP(=O)(O)O[C@H]2[C@H]1O` [c-di-AMP], the “cleavage of 32P-c-di-AMP, denaturing PAGE” value at CnpBMt is “only CnpB demonstrated an ability to directly hydrolyze c-di-AMP to AMP”; on GdpP(82–659)Bs it was “cytoplasmic portion of B. subtilis GdpP, which is known to hydrolyze c-di-AMP”; on CnpBMs, “All CnpB-like proteins exhibited robust hydrolysis of c-di-AMP”.
`Nc1ncnc2c1ncn2[C@@H]1O[C@H](COP(=O)(O)O[C@H]2[C@@H](O)[C@H](n3ccc(=O)[nH]c3=O)O[C@@H]2COP(=O)(O)O)[C@@H](O)[C@H]1O` [UA] gave a Kd at NrnABs of 1290 ± 180 nM.
The same measure, in the same setting: with `Nc1ncnc2c1ncn2[C@@H]1O[C@H](COP(=O)(O)O[C@H]2[C@@H](O)[C@H](n3cnc4c(N)ncnc43)O[C@@H]2COP(=O)(O)O)[C@@H](O)[C@H]1O` [AA] the figure was 450 ± 30 nM; with `Nc1ccn([C@@H]2O[C@H](COP(=O)(O)O)[C@@H](OP(=O)(O)OC[C@H]3O[C@@H](n4cnc5c(N)ncnc54)[C@H](O)[C@@H]3O)[C@H]2O)c(=O)n1` [CA], 2270 ± 130 nM.

B1: NrnABs (Bacillus subtilis subsp. subtilis str. 168) (protein)
chain: MKTELIRTISLYDTIILHRHVRPDPDAYGSQCGLTEILRETYPEKNIFAVGTPEPSLSFLYSLDEVDNETYEGALVIVCDTANQERIDDQRYPSGAKLMKIDHHPNEDPYGDLLWVDTSASSVSEMIYELYLEGKEHGWKLNTKAAELIYAGIVGDTGRFLFPNTTEKTLKYAGELIQYPFSSSELFNQLYETKLNVVKLNGFIFQNVSLSENGAASVFIKKDTLEKFGTTASEASQLVGTLGNISGIRAWVFFVEEDDQIRVRFRSKGPVINGLARKYNGGGHPLASGASIYSWDEADRILADLETLCKEHE
notes: full length; N-terminal 10xHis-SUMO tag cleaved by bdSENP1; expressed in E. coli T7 Express
A word on the Km: it is the concentration of substrate that gives half-maximal velocity. For the molecule B1, the Michaelis constant (Km) in data set [1] turned out to be 0.090 mM; in data set [2] it was 0.325 mM.
